Data on 1 compound can be found in patent US5496533A, “Rhenium complexes” (Australian Nuclear Science & Technology Organisation, priority 1992, dated 1996).

SMILES strings stand for the structures. Like-named read-outs stand apart in the source and are kept apart here.

The nature of the data set: Hygroscopic nature of the HCl salts. Type of data set: physicochemical. As to the method: To a solution of N-methyl-bicyclic compound (2) (10 mmole) in dry THF (100-150ml) was added a large excess of LiAlH4 (30 mmole), and the mixture was refluxed for about 24 hr. The reaction mixture was quenched with […]. NH4 Cl, and filtered. The contents of the funnel were washed with 100ml of CHCl3 twice and the combined filtrate of THF and CHCl3 was evaporated to dryness under reduced pressure. The residue was dissolved in ether (100 ml), and the hydrochloride salt was made by addition of ethanol--HCl and removal of organic solvent under reduced pressure.
To a solution of N-acyl-bicyclic compound (3) (10 mmole) in dry tetrahydrofuran (THF) (100-150ml) was added a large excess of LiAlH4 (50 mmole), and the mixture was refluxed for about 24 hr. The reaction mixture was quenched with satd. NH4 Cl, and filtered. The contents of the funnel were washed with 100 ml of CHCl3 twice and the combined filtrate of THF and CHCl3 was evaporated to dryness under reduced pressure. Water was added (100 ml), and the pH was adjusted to 3.0 with concentrated HCl. The mixture was extracted with diethyl ether (80 ml/extraction) to remove ether soluble impurities. These ether solutions were discarded. The pH was then adjusted to 8.0 and extracted with fresh ether. These ether solutions were dried (Na2 SO4), filtered and evaporated under reduced pressure. […]

With `CN(CCNCC(C)(C)S)CC(C)(C)S` [N-methyl compound (4), 2,2,9,9-pentamethyl-4-N-methyl-4,7-diaza-1,10-decanedithiol], the “hygroscopic nature of HCl salts” value is on record as “very hygroscopic”. The “hygroscopic nature of HCl salts” value (listed as 4(N--Me)) was “strong hygroscopic nature”.
